From ChEMBL document CHEMBL1201862, “PubChem BioAssay data set” (2004)
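Exposure lasted 48 hours, with cells grown in 96-well plates and compounds tested at five concentrations. At the GI50, growth is halved.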 Activity calls are given as the source filed them. Rule as the data show it: active = GI50 up to about 1.1 µM and inactive = higher.

Assays:
Experiment in all cases: NCI anticancer screen, dose series, 48 h
RPMI-8226 = tested on: RPMI-8226
SK-MEL-28 = tested on: SK-MEL-28
SNB-75 = tested on: SNB-75
SW-620 = tested on: SW-620
OVCAR-8 = tested on: OVCAR-8
HOP-62 = tested on: HOP-62
LOX IMVI = tested on: LOX IMVI
UO-31 = tested on: UO-31
UACC-257 = tested on: UACC-257
M19-MEL = tested on: M19-MEL
HCT-15 = tested on: HCT-15
HT-29 = tested on: HT-29
OVCAR-5 = tested on: OVCAR-5
SF-295 = tested on: SF-295
HOP-92 = tested on: HOP-92
NCI-H460 = tested on: NCI-H460
M14 = tested on: M14
Malme-3M = tested on: Malme-3M
EKVX = tested on: EKVX

SMILES	GI50 (RPMI-8226)	GI50 (SK-MEL-28)	GI50 (SNB-75)	GI50 (SW-620)	GI50 (OVCAR-8)	GI50 (HOP-62)	GI50 (LOX IMVI)	GI50 (UO-31)	GI50 (UACC-257)	GI50 (M19-MEL)	GI50 (HCT-15) [µM]	GI50 (HT-29)	GI50 (OVCAR-5)	GI50 (SF-295)	GI50 (HOP-92)	GI50 (NCI-H460)	GI50 (M14)	GI50 (Malme-3M)	GI50 (EKVX)
N#C/C(=C\c1ccc2ccccc2c1)c1ccccc1	53.1 µM (inactive)	45.4 µM (inactive)	23.2 µM (inactive)	28.8 µM (inactive)	32.4 µM (inactive)	26.6 µM (inactive)	53.3 µM (inactive)	25.5 µM (inactive)	25.5 µM (inactive)	26.6 µM (inactive)	23.6	26.7 µM (inactive)	98.2 µM (inactive)	20.2 µM (inactive)	65.9 µM (inactive)	17.1 µM (inactive)	19.5 µM (inactive)	–	–
COc1ccc(/C=C/C(=O)c2sc(N)nc2C)cc1	> 100 µM (inactive)	> 100 µM (inactive)	> 100 µM (inactive)	> 100 µM (inactive)	> 100 µM (inactive)	> 100 µM (inactive)	> 100 µM (inactive)	> 100 µM (inactive)	> 100 µM (inactive)	> 100 µM (inactive)	> 100	> 100 µM (inactive)	> 100 µM (inactive)	> 100 µM (inactive)	> 100 µM (inactive)	> 100 µM (inactive)	–	> 100 µM (inactive)	> 100 µM (inactive)
COc1nc(NC2OC(COC(C)=O)C(OC(C)=O)C(OC(C)=O)C2OC(C)=O)c(-c2csc(N)n2)c(=O)n1C (stereo unspecified)	> 100 µM (inactive)	55.7 µM (inactive)	18.4 µM (inactive)	> 100 µM (inactive)	31.8 µM (inactive)	29.6 µM (inactive)	> 100 µM (inactive)	52.8 µM (inactive)	58.3 µM (inactive)	36.5 µM (inactive)	> 100	> 100 µM (inactive)	> 100 µM (inactive)	68.4 µM (inactive)	28.4 µM (inactive)	73.1 µM (inactive)	78.7 µM (inactive)	26.8 µM (inactive)	–
O=C(/C=C/c1ccc(Cl)c(Cl)c1)c1cccc2ccccc12	2.29 µM (inactive)	17.8 µM (inactive)	3.51 µM (inactive)	1.71 µM (inactive)	2.16 µM (inactive)	17 µM (inactive)	–	19.6 µM (inactive)	15.9 µM (inactive)	11.7 µM (inactive)	2.54	3.59 µM (inactive)	13.8 µM (inactive)	11.4 µM (inactive)	16.8 µM (inactive)	5.81 µM (inactive)	17.1 µM (inactive)	18.4 µM (inactive)	18.4 µM (inactive)
O=C1c2ccccc2C(=O)c2nc3ccc(Cl)cc3cc21	> 100 µM (inactive)	> 100 µM (inactive)	> 100 µM (inactive)	> 100 µM (inactive)	> 100 µM (inactive)	> 100 µM (inactive)	> 100 µM (inactive)	> 100 µM (inactive)	–	> 100 µM (inactive)	> 100	> 100 µM (inactive)	> 100 µM (inactive)	52.5 µM (inactive)	> 100 µM (inactive)	> 100 µM (inactive)	> 100 µM (inactive)	> 100 µM (inactive)	> 100 µM (inactive)
CC(C)[C@H]1CO[C@@H]2O[C@H](C)CC(=O)N21	> 100 µM (inactive)	> 100 µM (inactive)	> 100 µM (inactive)	> 100 µM (inactive)	> 100 µM (inactive)	> 100 µM (inactive)	–	> 100 µM (inactive)	> 100 µM (inactive)	> 100 µM (inactive)	> 100	> 100 µM (inactive)	–	> 100 µM (inactive)	> 100 µM (inactive)	> 100 µM (inactive)	> 100 µM (inactive)	> 100 µM (inactive)	> 100 µM (inactive)
